# Results taken from patent US7285564B2, “Substituted 4-amino-1-(pyridylmethyl)piperidine and related compounds” (Theravance, Inc., priority 2002, dated 2007).
# Target: T1, hM3 muscarinic receptor subtype (Homo sapiens, UniProt P20309)
# T1 construct: expressed in transfected cells; membranes prepared
# Experiment: Radioligand binding assay, hM3 relative to hM2
# Details: ratio of Ki values from radioligand displacement
# Description: CHO (Chinese hamster ovary) cell lines stably expressing cloned human hM1, hM2, hM3 and hM4 muscarinic receptor subtypes, respectively, were grown to near confluency in medium consisting of HAM's F-12 supplemented with 10% FBS (Fetal Bovine Serum) and 250 μg/mL Geneticin. The cells were grown in a 5% CO2, 37° C. incubator and lifted with dPBS+2 mM EDTA. Cells were collected by 5 minute centrifugation at 650×g, and cell pellets were either stored frozen at −80° C. or membranes were prepared immediately. For membrane preparation, cell pellets were resuspended in lysis buffer and homogenized with a Polytron PT-2100 tissue disrupter (Kinematica AG; 20 seconds×2 bursts). Crude membranes were centrifuged at 40,000×g for 15 minutes at 4° C. […] Protein concentration of the membrane suspension was determined by the method of Lowry, O. et al., (1951) […]: 193, 265. […]
# Radioligand binding assays were performed in 96-well microtiter plates in a total assay volume of 100 μL. […] Filter plates were rinsed three times with wash buffer (10 mM HEPES) to remove unbound radioactivity. […] The plates were then counted in a PerkinElmer Topcount liquid scintillation counter (PerkinElmer Inc., Wellesley, Mass.). Binding data were analyzed by nonlinear regression analysis with the GraphPad Prism Software package (GraphPad Software, Inc., San Diego, Calif.) using the one-site competition model. […]
# T1 sequence (P20309 whole entry): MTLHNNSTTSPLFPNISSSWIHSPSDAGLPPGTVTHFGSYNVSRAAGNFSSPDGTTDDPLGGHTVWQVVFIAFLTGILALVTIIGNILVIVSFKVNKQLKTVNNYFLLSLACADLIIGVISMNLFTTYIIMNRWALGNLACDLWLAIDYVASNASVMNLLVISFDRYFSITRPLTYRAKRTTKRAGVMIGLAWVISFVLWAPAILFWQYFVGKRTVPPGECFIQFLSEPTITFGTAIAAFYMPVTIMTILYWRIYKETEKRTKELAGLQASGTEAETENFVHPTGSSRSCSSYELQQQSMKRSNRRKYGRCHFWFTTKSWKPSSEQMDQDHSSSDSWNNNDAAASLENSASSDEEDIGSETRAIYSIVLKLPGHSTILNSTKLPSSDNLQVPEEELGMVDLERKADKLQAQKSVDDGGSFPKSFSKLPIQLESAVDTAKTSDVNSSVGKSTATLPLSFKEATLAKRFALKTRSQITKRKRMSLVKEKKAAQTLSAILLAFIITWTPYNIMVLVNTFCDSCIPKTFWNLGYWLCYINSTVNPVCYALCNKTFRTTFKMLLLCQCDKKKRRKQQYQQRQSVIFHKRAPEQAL
compound,measurement,value
COc1ccncc1CN1CCC(N(CCCCCCCN2CC[C@@H](C(C(N)=O)(c3ccccc3)c3ccccc3)C2)C(C)C)CC1 [Example 1],hM3/hM2 ratio,greater than 40
